{"source": "patent US9060997B2", "about": "“Antifolate compounds for the treatment of melanoma” (UNIVERSIDAD DE MURCIA, priority 2007, dated 2015)", "key": {"[1]": {"target": "T1, rHDHFR (Homo sapiens, UniProt P00374)", "T1 construct": "purchased Sigma", "T1 sequence (P00374 1-187)": "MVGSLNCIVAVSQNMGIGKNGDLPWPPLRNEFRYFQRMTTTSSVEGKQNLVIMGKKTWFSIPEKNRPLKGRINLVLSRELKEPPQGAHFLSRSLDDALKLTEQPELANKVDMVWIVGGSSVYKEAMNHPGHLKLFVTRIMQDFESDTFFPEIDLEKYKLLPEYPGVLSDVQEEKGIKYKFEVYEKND", "experiment": "rHDHFR binding: fluorescence titration and stopped-flow fluorescence", "method": "The experiments were carried out in a buffer containing 2-(N-morpholino)ethanesulfonic acid (Mes, 0.025 M), sodium acetate (0.025 M), tris-(hydroxymethyl)aminomethane (Tris 0.05 M), and NaCl (0.1 M) at pH 7.4 and 25° C. in the presence of QM and rHDHFR (0.5 μM).\nStopped-flow fluorescence experiments were carried out at pH 7.4 and 25° C. using an enzyme concentration of 0.25 μM. The reaction of rHDHFR with inhibitors was observed under pseudo-first order conditions by fluorescence at 340 nm (excitation at 290 nm). The data points s are the means of at least 3 (normally 5) repeat observations±SD. […] Aliquots (20 μl) of the incubation mixture was then diluted 50-fold into a reaction mixture containing the buffer, NADPH (100 μM), and DHF (10 μM) to give a final enzyme concentration of 1.5 nM.\n(§1) The activity of rHDHFR was determined at 25° C. by following the decrease in the absorbance of NADPH and DHF at 340 nm (ε=11800 M-1 cm−1) (Stone and Morrison, 1986). Progress curves were obtained under ordered conditions ([NADPH]>>[DHF]). rHDHFR inhibition constants were calculated as described by Navarro-Perán et al., 2005b. The dissociation constant for the binding of inhibitors to free rHDHFR was determined at 25° C. by fluorescence titration in an automatic-scanning Perkin-Elmer LS50B spectrofluorimeter. Fluorescence emission spectra were recorded when rHDHFR fluorescence was excited at 290 nm. Stopped-flow fluorescence experiments were carried out using an Applied Photophysics Ltd. Pi-Star 180 spectrometer with a stopped-flow unit at 25° C."}, "[2]": {"target": "T1, rHDHFR", "experiment": "rHDHFR inhibition, progress curves", "assay_type": "biochemical", "method": "The experiments were carried out in the same buffer as fluorescence experiments in the presence of NADPH (100 μM), DHF (10 μM), and rHDHFR (1.5 nM).\nas §1"}, "[3]": {"system": "DHFR mRNA and protein", "experiment": "DHFR mRNA (real-time PCR) and protein in SkMel-28", "assay_type": "cell-based, human", "settings": "SkMel-28, 50 μM", "method": "Data were obtained by real time PCR and compared with the relative expression of DHFR in HeM cells (zero relative gene expression). Zero time represents the level of DHFR in untreated SkMel-28 cells.\ncDNA samples (1 μL) were used for real-time PCR in a total volume of 20 μL using SYBR Green Reagent (Applied Biosystems) and specific primers on a 7500 Real Time PCR System of Applied Biosystems. The PCR amplification cycles included denaturation 95° C., 15 min; to activate HotStar Taq DNA polymerase and to minimize primer-dimer contribution), and amplification [over 40-50 cycles including denaturation (94° C.; 30 s), annealing (55° C.; 30 s), and extension (72° C.; 1 min)]. All PCR reactions were performed in triplicate and from at least two independent experiments. Non-RT control and negative control samples (without template) were processed in the same manner. […] Amplification of target gene sequences were compared against serial dilutions of know quantities of their purified cDNA fragments, and normalized to the abundance of the house-keeping gene β-actin.\nProtein lysates were prepared from specified cells, separated by SDS-polyacrylamide gel electrophoresis (PAGE), transferred to nitrocellulose membranes, and analyzed by immunoblotting. […] Bound antibodies were detected by chemiluminiscence (ECL Plus, GE Healthcare). […]"}, "[4]": {"system": "γ-glutamylcysteine synthetase (GCS) mRNA", "experiment": "GCS mRNA determination in SkMel-28", "assay_type": "cell-based, human", "settings": "SkMel-28 treated with TMECG", "method": "Histograms compare the estimated relative levels of the mRNA with respect to that of β-actin. Values represent the number of copies of mRNA per each 1×10^6 copies of β-actin.\ncDNA samples (1 μL) were used for real-time PCR in a total volume of 20 μL using SYBR Green Reagent (Applied Biosystems) and specific primers on a 7500 Real Time PCR System of Applied Biosystems. The PCR amplification cycles included denaturation 95° C., 15 min; to activate HotStar Taq DNA polymerase and to minimize primer-dimer contribution), and amplification [over 40-50 cycles including denaturation (94° C.; 30 s), annealing (55° C.; 30 s), and extension (72° C.; 1 min)]. All PCR reactions were performed in triplicate and from at least two independent experiments. Non-RT control and negative control samples (without template) were processed in the same manner. The specificity of the amplification was verified by melting curve analysis for all samples, and occasionally by agarosa gel electrophoresis. Amplification of target gene sequences were compared against serial dilutions of know quantities of their purified cDNA fragments, and normalized to the abundance of the house-keeping gene β-actin."}, "[5]": {"system": "B16 melanoma", "experiment": "Mouse tumor model, B16 melanoma, topical TMECG cream", "assay_type": "in vivo", "method": "Female C57/B16 mice 6-8 weeks old were obtained from the Animal Research Service (University of Murcia, Spain) and were housed in our animal facilities. All animal work was performed in accordance with the government guidelines. The B16 melanoma cell line (ATCC) was culture in RPMI 1640 medium under standard tissue culture conditions. Mice were shaved on the back using a long-hair cutter and 7.5×10^5 B16 melanoma cells resuspended in 25 μl sterile PBS were injected intradermally on the back. Animals with tumors more than 8 mm in diameter on day 8 or nonvisible tumor growth by day 12 were excluded. Groups consisting of 20 mice per group were differently treated starting at day 8 after tumor cell injection. For TMECG treatments this compound was uniformly mixed in a cosmetic base cream (Thae, Murcia, Spain). Topical treatment of TMECG was given every day at a dose of ≈1 mg/cm2 skin area. Control mice (non-TMECG treated) were topically treated with the some amount of cream alone. Tumor growth and body weight were monitored every second day. A postmortem with histological examination of the lung, liver and brain was performed in all animals. Tissues were fixed in 10% formaldehyde, dehydrated and embedded in paraffin wax. Sections (4 μm) were stained with eosin and hematoxylin. Analyses of gluconic acid content in lungs were carried out as described elsewhere (Pradeep and Kuttan, 2002)."}, "[6]": {"system": "B16/F10 melanoma cell tumours", "experiment": "Primary tumour model, B16/F10 melanoma in C57/B16 mice", "assay_type": "in vivo, mouse", "from_the_text": "Translational therapy was then designed to probe the efficacy of this combination on mice induced melanoma tumor. Injection of 5×10^5 B16/F10 melanoma cells in the back of C57/B16 mice formed a blackish tumor mass, which in untreated control mice reached to a tumor area of 3.7±0.7 and 9.3±1.1 cm2 in female and male, respectively, after 21 days of cells inoculation."}, "[7]": {"settings": "treated for 21 days, post-mortem"}}}
{"smiles": "COc1cc(C(=O)O[C@@H]2Cc3c(O)cc(O)cc3O[C@@H]2c2ccc(O)c(O)c2)cc(OC)c1OC", "note": "[TMECG, 3-O-(3,4,5-trimethoxybenzoyl)-(−)-epicatechin]", "values": [{"measurement": "koff", "setting": "[1]; calculated from KI=koff/kon, read-out: koff", "result": 0.29, "unit": "s⁻¹"}, {"measurement": "Ki", "setting": "[1]; dissociation constant, free rHDHFR, fluorescence titration, pH 7.4, 25° C.", "result": 2100, "unit": "nM"}, {"measurement": "kon", "setting": "[1]; stopped-flow fluorescence, pH 7.4, 25° C., read-out: kon", "result": 140000, "unit": "M⁻¹ s⁻¹"}, {"measurement": "Decrease % further EI reactions", "setting": "[2]; decrease of KI to KI* by further EI-complex reactions", "result": "19 −fold"}, {"measurement": "Ki", "setting": "[2]; read-out: effective inhibition constant (KI*)", "result": 110, "unit": "nM"}, {"measurement": "DHFR mRNA and protein level", "setting": "[3]", "result": "reduced DHFR mRNA and protein to normal levels"}, {"measurement": "GCS mRNA, mean value", "setting": "[4]", "result": "26300 copies per million of copies of β-actin mRNA"}, {"measurement": "tumor growth", "setting": "[5]; topical, ≈1 mg/cm2 skin area every day", "result": "significantly reduced"}, {"measurement": "survival time", "setting": "[5]; topical, ≈1 mg/cm2 skin area every day, female C57/B16 mice", "result": "longer survival time"}, {"measurement": "liver and brain metastasis", "setting": "[5]; [7]", "result": "no metastasis in these organs was detected"}, {"measurement": "lung metastasis", "setting": "[5]; [7]", "result": "drastically reduced lung metastasis"}, {"measurement": "tumor mass reduction", "setting": "[6]; females, TMECG 2.5 mg/Kg/d", "result": 27, "unit": "%"}, {"measurement": "effect of single treatments", "setting": "[6]; male mice", "result": "not effective"}]}
